Results from patent US12059399B2, “Methods for alleviating kidney disease and fibrosis of organ” (Getwing Biotechnology Medical Co., Ltd, priority 2021, dated 2024).

How the values were obtained:
[1] = system: mice subjected to UUO surgery; assay: Biochemical analysis of blood and urine samples of mice 7 days after unilateral ureter obstruction (UUO) surgery; format: in vivo, Male C57BL/6J mice
Description: Male C57BL/6J mice (having a weight of about 25 g) purchased from the National Laboratory Animal Center (Taipei, Taiwan) were kept in an animal room under the following laboratory conditions: a temperature of about 24° C. and a 12-hour light/12-hour dark cycle. Diets and water were provided ad libitum for all of the experimental animals.
(§1) The UUO surgery was performed in accordance with the Guidelines for Care and Use of Laboratory Animals. Specifically, during the UUO surgery, the respective mouse was anesthetized through intraperitoneal injection of pentobarbital (Manufacturer: Merck KGaA, Darmstadt, Germany; Catalogue no.: P3761) at a dose of about 60 mg per kg of body weight. The skin tissue and the subcutaneous muscle layer at the left side of the abdominal midline were incised, so that the left kidney was exposed and the left ureter was identified and dissociated. The left ureter was dissected out with scissors and ligated with silk surgical sutures (size: 4-0) at an upstream location approximately 1 cm from the renal hilum and at a downstream location approximately 1 cm from the renal hilum. After confirmation that no bleeding and no urine leakage occurred, the incised subcutaneous muscle layer and skin tissue were stitched.
(§2) The male C57BL/6J mice described in section 2 of the “General Experimental Materials” were randomly divided into 5 groups, namely, a sham-operated group (SOG), a pathological control groups (PCG), and three experimental groups (i.e., experimental group 1 (EG1), experimental group 2 (EG2), and experimental group 3 (EG3)) (n=3 per group). After being raised in the animal room for one week, the mice in the PCG and the EG1 to EG3 were subjected to the UUO surgery as described in section 1 of the “General Experimental Procedures”. The mice in the SOG were subjected to a similar surgical procedure, except that the ureter of the mice in the SOG was not obstructed, i.e., the left ureter was not dissected out and ligated. After surgery, during the entire experimental process which lasted 7 days, all the mice were placed in iron cages.
(§3) The mice of the EG1 to EG3 were respectively administered, via oral gavage, with the ferrous amino acid chelate described in section 1 of the “General Experimental Materials” at a dose of 5 mg/kg, 125 mg/kg and 250 mg/kg of body weight once daily (in the morning) for 7 days. At the end of Day 7, a blood sample and a urine sample, each in a volume of 0.2 mL, were obtained from each mouse in the EG1 to EG3. The mice of the SOG and the mice of the PCG received no treatment (i.e., 0 mg/kg of ferrous amino acid chelate), and at the end of Day 7, a blood sample and a urine sample, each in a volume of 0.2 mL, were obtained from each mouse.
The blood sample of the respective mouse was subjected to measurements of alanine transaminase (ALT), aspartate transaminase (AST), blood urea nitrogen (BUN) and creatinine levels for evaluation of kidney health. The urine sample of the respective mouse was subjected to quantification of urea nitrogen and creatinine levels for evaluation of kidney health. For each of the aforesaid parameters, the differences between each group were analyzed according to the procedures as described in the section 2 of the “General Experimental Procedures”.

HK-2 cells [2] = assay: Cytotoxicity analysis (MTT) in HK-2 cells; format: cell-based, Human; settings: EG1 to EG6: 50, 100, 250, 500, 750 and 1000 μg/mL; 24 hours; vs control group
Description: (§4) Human kidney proximal tubular epithelial cell line HK-2 (from normal adult human renal cortex) used in the following experiments was obtained from, the Bioresource Collection and Research Center (BCRC) of the Food industry Research and Development Institute (FIRDI) (No. 331, Shih-Pin Rd., Hsinchu City 300, Taiwan).
The HK-2 cells were incubated in 10-cm Petri dishes, each of which contained Dulbecco's modified Eagle's medium/Ham's Nutrient Mixture F-12 (DMEM/F12) (Manufacturer: Thermo Fisher Scientific, WA, USA; Catalogue no.: 12500062) supplemented with HyClone™ 1% (v/v) penicillin-steptomycin (Manufacturer: Cytiva; Catalogue no.: SC30010). […]
First, the HK-2 cells described in section 3 of the General Experimental Materials were seeded at a concentration of 2×10^4 cells per well into wells of 6-well culture plates each containing DMEM/F-12 supplemented with 1% (v/v) penicillin-steptomycin, and then were divided into 7 groups, namely, a control group (CG), and six experimental groups (i.e., experimental groups 1 to 6 (EG1 to EG6)), followed by cultivation in an incubator with culture conditions set at 37° C. and 5% CO2 for 24 hours. […] Subsequently, the medium in each group was collected and subjected to light absorbance measurement at a wavelength of 570 nm (OD570) using a spectrophotometer. […]

[3] = system: left obstructed kidney of mice subjected to UUO surgery; assay: Histological analysis of renal tissues from the left obstructed kidney after UUO surgery (H&E, Masson's Trichrome, α-SMA and vimentin staining); format: in vivo, Male C57BL/6J mice
Description: as §1, §2, §3
The renal tissues were extracted from the left obstructed kidney of a selected mouse in each group. Fixation was conducted using 10% formalin, and dehydration was conducted using a series of graded alcohols (lower to higher concentrations) and xylene, followed by embedding in paraffin. A tissue section of […] was obtained and placed on a slide, followed by heating in an oven at […] overnight for melting the paraffin. Xylene was used to remove the melted paraffin, and rehydration was conducted with graded alcohols (higher to lower concentrations). Endogenous peroxidase was removed using 1% H2O2, followed by washing with a phosphate-buffered saline (PBS) buffer, so as to increase the permeability. After incubating the tissue section with fetal bovine serum (FBS) to prevent binding of some non-specific antigens, water was removed by suction.
For staining of α-smooth muscle actin (SMA), a primary antibody against α-smooth muscle actin (SMA)(α-SMA) (Manufacturer: Abcam PLC; Catalogue no.: ab5694) with a dilution ratio of 1:400 was added to the tissue section at room temperature, and the reaction was allowed to proceed for 2 hours at room temperature. Thereafter, washing was conducted twice with PBS to remove unbound primary antibodies. A Polymer-HRP secondary antibody (Manufacturer: Golden Bridge International, Inc., USA) was added. One hour later after the reaction, washing was conducted twice with PBS. […]

[4] = system: fibrous proteins (α-SMA, collagen I fibers, and vimentin) in kidney tissues; assay: Protein expression analysis (Western blot) of renal tissues from the left obstructed kidney after UUO surgery; format: in vivo, Male C57BL/6J mice; settings: 7 days, vs PCG
Description: as §1, §2, §3
The renal tissues were extracted from the left obstructed kidney of a selected mouse in each group, and then lysed with NETN lysis buffer (20 mM Tris, 150 mM NaCl, 1 mM EDTA, and 0.5% NP-40) on ice. The resultant cell lysates were centrifuged, and the supernatants were collected to serve as total protein samples.
Protein samples in equal amounts (i.e., 20 μg) as determined by Bradford assay were resolved in 8% or 10% sodium dodecyl sulfate-polyacrylamide (SDS-PAGE) gels, and then subjected to immunoblot analysis. To be specific, the separated proteins were transferred to Immobilon®-P polyvinylidene difluoride (PVDF) membranes (Manufacturer: Merck Millipore, NJ, USA). The blotted PVDF membranes thus obtained were blocked with Tris-buffered saline (TBS) and 0.1% (vol/vol) polysorbate 20 (also known as Tween 20) containing 5% non-fat dry milk for 1 hour at room temperature, followed by washing with TBST 3 times, each time for […], and then probing with the indicated primary antibodies overnight. The probed membranes were washed with a TBST buffer (a mixture of TBS and polysorbate 20) 3 times, each time for 5 minutes, and were then incubated with secondary antibodies, such as a horseradish peroxidase (HRP)-conjugated anti-mouse antibody or an HRP-conjugated anti-rabbit antibody for 60 minutes at room temperature. HRP was detected using ECL detection reagents (Merck Millipore, Darmstadt, Germany), and band intensity was determined by ImageQuant™ LAS-4000 luminescence image analyzer (GE Healthcare).
Anti-glyceraldehyde 3-phosphate dehydrogenase (GAPDH) was used as a loading control.

HK-2 cells [5] = assay: Migration of HK-2 cells into the cell-free wound area, induced by TGF-β1 (EMT); format: cell-based, Human; settings: 100 μg/mL with 50 ng/mL TGF-β1; 24 hours; vs TGF-β1 alone (comparative group 1)
Description: as §4
The HK-2 cells were incubated in 10-cm Petri dishes, each of which contained Dulbecco's modified Eagle's medium/Ham's Nutrient Mixture F-12 (DMEM/F12) (Manufacturer: Thermo Fisher Scientific, WA, USA; Catalogue no.: 12500062) supplemented with HyClone™ 1% (v/v) penicillin-steptomycin (Manufacturer: Cytiva; Catalogue no.: SC30010). Subsequently, cultivation was conducted in an incubator with culture conditions set at 37° C. and 5% CO2. Medium change was performed every 2 days. […]
First, the HK-2 cells described in section 3 of the General Experimental Materials were seeded at a concentration of 4×10^4 cells per well into wells of 6-well culture plates each containing DMEM supplemented with 1% (v/v) penicillin-steptomycin, and then were divided into 4 groups, namely, a control group, a comparative group 1, a comparative group 2, and an experimental group, followed by cultivation until reaching 90% of confluence. […] Cell migration was assessed at the 0 hour and 24th hour using an inverted optical microscope.

[6] = EG1 to EG3: 5, 125 and 250 mg/kg oral gavage once daily for 7 days, between SOG, PCG and EG1 to EG3
[7] = 125 and 250 mg/kg (EG2, EG3) compared with 5 mg/kg (EG1)
[8] = EG1 to EG3: 5, 125 and 250 mg/kg oral, 7 days, vs PCG
[9] = EG1 and EG2: 5 and 125 mg/kg oral

Substance: ferrous glycinate chelate [ferrous amino acid chelate]
- blood urea nitrogen level ([1]; EG1 to EG3: 5, 125 and 250 mg/kg oral gavage once daily for 7 days, UUO mice, vs PCG): significantly reduced compared to that in the PCG
- urine urea nitrogen level ([1]; EG1 to EG3: 5, 125 and 250 mg/kg oral gavage once daily for 7 days, among PCG, EG1, EG2 and EG3): no significant difference
- ALT level in the blood sample [1, 6]: no significant difference
- AST level in the blood sample [1, 6]: no significant difference
- creatinine level in the blood sample [1, 6]: no significant difference
- urine creatinine level ([1]; EG2 and EG3: 125 and 250 mg/kg oral gavage once daily for 7 days, UUO mice, vs PCG): significantly reduced compared to that in the PCG
- viability of the HK-2 cells (cell viability rate, MTT) (HK-2 cells [2]): not significantly affected
- degree of reduction of interstitial deposition of collagen fibers and muscle fibers [3, 7]: greater in EG2 and EG3 compared with those in EG1
- degree of reduction of tubular dilation [3, 7]: greater in EG2 and EG3 compared with those in EG1
- amount of actin fibers (α-SMA staining) [3, 8]: significantly reduced compared with those in the PCG
- interstitial deposition of collagen fibers and muscle fibers (Masson's Trichrome staining) [3, 8]: significantly reduced compared with those in the PCG
- number of cells undergoing fibrosis (vimentin staining) [3, 8]: significantly reduced compared with those in the PCG
- tubular dilation (H & E staining) [3, 8]: significantly reduced compared with those in the PCG
- expression of collagen I (Western blot) [4, 9]: no significant difference
- expression of α-SMA (Western blot) [4, 9]: no significant difference
- expression level of vimentin (Western blot) ([4]; EG2 and EG3: 125 and 250 mg/kg oral): significant reduction in expression level
- expression of collagen I (Western blot) ([4]; EG3: 250 mg/kg oral): significantly reduced
- expression of α-SMA (Western blot) ([4]; EG3: 250 mg/kg oral): significantly reduced
- expression level of vimentin (Western blot) ([4]; from EG1 to EG3: 5, 125, 250 mg/kg oral): gradually reduced from EG1 to EG3
- migration of HK-2 cells into the cell-free wound area (HK-2 cells [5]): decreased capability to migrate into the cell-free wound area
